Measured values taken from ChEMBL document CHEMBL1129665, “2-Sulfonyl-4-chloroanilino moiety: a potent pharmacophore for the anti-human immunodeficiency virus type 1 activity of pyrrolyl aryl sulfones” (J Med Chem, 1996).
pEC50, pIC50: −log10 of the molar value.

How the values were obtained:
[1] = tested on: MT4; test: Effective concentration against HIV-1 induced cytopathogenicity in MT-4 cells; format: functional, cell-based; conditions: Homo sapiens
[2] = tested on: MT4; test: Selectivity index expressed as the ratio of CC50/ EC50; format: functional, Homo sapiens
[3] = tested on: MT4; test: Concentration required to reduce the viability of mock-infected MT-4 cells by 50%; format: functional; conditions: Homo sapiens
[4] = molecular target: Human immunodeficiency virus type 2 pol protein (Human immunodeficiency virus 2, UniProt P88142); test: Inhibitory activity against HIV rRT activity in HIV-2
[5] = molecular target: Human immunodeficiency virus type 1 reverse transcriptase (Human immunodeficiency virus 1, UniProt Q72547); test: Inhibitory activity against HIV rRT activity in wild type IIIB strain
[6] = molecular target: Human immunodeficiency virus type 1 reverse transcriptase (Human immunodeficiency virus 1, UniProt Q72547, Y181C); test: Inhibitory activity against HIV rRT activity in mutant HIV-1 strain resistant to Nevirapine (Y181C)
[7] = molecular target: Human immunodeficiency virus type 1 reverse transcriptase (Human immunodeficiency virus 1, UniProt Q72547, L100I); test: Inhibitory activity against HIV rRT activity in HIV-1 mutant resistant to TIBO(L100I) strain

Chain of Human immunodeficiency virus type 2 pol protein (P88142 whole entry): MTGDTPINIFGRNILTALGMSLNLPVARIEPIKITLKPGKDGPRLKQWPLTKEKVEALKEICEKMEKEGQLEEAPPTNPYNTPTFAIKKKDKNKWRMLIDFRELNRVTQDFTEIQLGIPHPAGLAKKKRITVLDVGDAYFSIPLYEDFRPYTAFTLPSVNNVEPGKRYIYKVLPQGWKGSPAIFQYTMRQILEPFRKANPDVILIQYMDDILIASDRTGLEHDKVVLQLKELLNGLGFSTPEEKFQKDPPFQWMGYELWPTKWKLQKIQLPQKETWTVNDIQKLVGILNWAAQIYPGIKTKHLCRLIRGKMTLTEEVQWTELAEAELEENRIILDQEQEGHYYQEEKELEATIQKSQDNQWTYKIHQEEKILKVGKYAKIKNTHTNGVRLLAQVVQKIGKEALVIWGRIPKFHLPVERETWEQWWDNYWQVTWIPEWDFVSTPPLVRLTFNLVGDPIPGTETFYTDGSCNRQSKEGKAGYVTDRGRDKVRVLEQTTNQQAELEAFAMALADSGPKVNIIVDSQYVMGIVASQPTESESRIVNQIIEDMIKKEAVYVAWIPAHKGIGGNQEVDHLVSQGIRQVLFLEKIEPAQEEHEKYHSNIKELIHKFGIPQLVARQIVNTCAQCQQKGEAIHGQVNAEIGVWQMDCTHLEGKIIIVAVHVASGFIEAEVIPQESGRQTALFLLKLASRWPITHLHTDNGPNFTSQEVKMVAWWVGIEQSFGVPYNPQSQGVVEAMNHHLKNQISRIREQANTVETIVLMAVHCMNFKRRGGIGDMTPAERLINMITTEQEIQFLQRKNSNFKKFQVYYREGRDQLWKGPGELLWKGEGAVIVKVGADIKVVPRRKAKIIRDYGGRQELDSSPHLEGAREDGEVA

| SMILES | pEC50 [1] | Ratio [2] | CC50 [3] [µM] | pIC50 [4] | pIC50 [5] | pIC50 [6] | pIC50 [7] |
| --- | --- | --- | --- | --- | --- | --- | --- |
| COC(=O)c1cccn1S(=O)(=O)c1cc(N)ccc1Cl | 4.12 | 2 | 150 |  |  |  |  |
| Nc1ccc(Cl)cc1S(=O)(=O)n1cccc1 | 4.02 | 2 | 165 |  |  |  |  |
| COC(=O)c1cccn1S(=O)(=O)c1ccccc1N | 4.66 | >14 | > 300 |  |  |  |  |
| CCOC(=O)c1cccn1S(=O)(=O)c1ccccc1N | 5.00 | >30 | > 300 |  |  |  |  |
| C=CCOC(=O)c1cccn1S(=O)(=O)c1cc(Cl)ccc1[N+](=O)[O-] | < 5.37 |  | 4.3 |  |  |  |  |
| O=C(NC1CCCCC1)c1cccn1S(=O)(=O)c1ccccc1F | < 3.52 |  | 300 |  |  |  |  |
| CCOC(=O)c1cccn1S(=O)(=O)c1cc(N)ccc1Cl | < 4.14 |  | 72 |  |  |  |  |
| CC(=O)c1cccn1S(=O)(=O)c1ccccc1[N+](=O)[O-] | 5.70 | 50 | 100 |  |  |  |  |
| O=C(NCc1ccccc1)c1cccn1S(=O)(=O)c1ccccc1F | 4.40 | 7 | > 300 |  |  |  |  |
| COC(=O)c1cccn1S(=O)(=O)c1ccc(Cl)cc1[N+](=O)[O-] | < 3.52 |  | > 300 |  |  |  |  |
| O=[N+]([O-])c1ccccc1S(=O)(=O)n1cccc1 | < 4.44 |  | 36 |  |  |  |  |
| Nc1ccc(Cl)cc1S(=O)(=O)n1ccc2ccccc21 | 6.00 |  | 1 |  |  |  |  |
| Nc1ccccc1S(=O)(=O)n1ccc2ccccc21 | 4.96 | 5 | 58 |  |  |  |  |
| CCOC(=O)c1cccn1S(=O)(=O)c1ccccc1Cl | 4.57 | 5 | 141 |  |  |  |  |
| CCNc1ccc(Cl)cc1S(=O)(=O)n1cccc1C(=O)OCC | < 3.52 |  | 300 |  |  |  |  |
| Nc1ccc(Cl)cc1S(=O)(=O)n1cccc1C(=O)OCc1ccccc1 | 3.82 | >2 | > 300 |  |  |  |  |
| O=C(OCc1ccccc1)c1cccn1S(=O)(=O)c1cc(Cl)ccc1[N+](=O)[O-] | < 3.52 |  | 300 |  |  |  |  |
| O=CNNC(=O)c1cccn1S(=O)(=O)c1ccccc1F | < 3.52 |  | 300 |  |  |  |  |
| CCOC(=O)c1cccn1S(=O)(=O)c1cc(C)ccc1[N+](=O)[O-] | 5.01 | >30.6 | > 300 | < 4.70 | 5.30 | < 4.70 | < 4.70 |
| O=[N+]([O-])c1ccc(Cl)c(S(=O)(=O)n2ccc3ccccc32)c1 | < 5.52 |  | 3 |  |  |  |  |

| SMILES | pEC50 [1] | Ratio [2] | CC50 [3] [µM] | pIC50 [4] | pIC50 [5] | pIC50 [6] | pIC50 [7] |
| --- | --- | --- | --- | --- | --- | --- | --- |
| O=[N+]([O-])c1ccc(Cl)c(S(=O)(=O)n2cccc2)c1 | < 5.70 |  | 2 |  |  |  |  |
| CCOC(=O)c1cccn1S(=O)(=O)c1cc(C)ccc1N | 5.77 | >176 | > 300 | < 4.70 | 5.40 | < 4.70 | < 4.70 |
| CCOC(=O)c1cccn1S(=O)(=O)c1cc([N+](=O)[O-])ccc1Cl | < 5.22 |  | 6 |  |  |  |  |
| Nc1cc(Cl)ccc1S(=O)(=O)n1cccc1 | < 4.12 |  | 75 |  |  |  |  |
| O=[N+]([O-])c1ccc(Cl)cc1S(=O)(=O)n1cccc1 | < 5.70 |  | 2 |  |  |  |  |
| COC(=O)c1cccn1S(=O)(=O)c1cc(Cl)ccc1[N+](=O)[O-] | 5.00 | 1.2 | 12 |  |  |  |  |
| CCOC(=O)c1cccn1S(=O)(=O)c1cc(Cl)ccc1NC | < 3.52 |  | 300 |  |  |  |  |
| CCOC(=O)c1cccn1S(=O)(=O)c1cc(Cl)c(Cl)cc1[N+](=O)[O-] | < 5.30 |  | 5 |  |  |  |  |
| Nc1ccc(Cl)c(S(=O)(=O)n2ccc3ccccc32)c1 | 3.82 | >2 | > 300 |  |  |  |  |
| O=C(O)c1cccn1S(=O)(=O)c1ccccc1F | < 3.52 |  | > 300 |  |  |  |  |
| COC(=O)c1cccn1S(=O)(=O)c1ccc(Cl)cc1N | < 3.61 |  | 248 |  |  |  |  |
| CCOC(=O)c1cccn1S(=O)(=O)c1cc(Cl)ccc1N | 6.85 | >2140 | > 300 | < 4.70 | 6.40 | 5.12 | 5.07 |
| O=[N+]([O-])c1ccccc1S(=O)(=O)n1ccc2ccccc21 | 5.30 | 5 | 24 |  |  |  |  |
| CNc1ccccc1S(=O)(=O)n1cccc1 | < 3.52 |  | > 300 |  |  |  |  |
| COC(=O)c1cccn1S(=O)(=O)c1cc([N+](=O)[O-])ccc1Cl | < 4.92 |  | 12 |  |  |  |  |
| O=C(NC1CC1)c1cccn1S(=O)(=O)c1ccccc1F | < 3.52 |  | 300 |  |  |  |  |
| CCOC(=O)c1cccn1S(=O)(=O)c1cc(Cl)c(Cl)cc1N | 4.92 | >25 | > 300 |  |  |  |  |
| Nc1ccc(Cl)c(S(=O)(=O)n2cccc2)c1 | < 4.04 |  | 91 |  |  |  |  |
| Nc1cc(Cl)ccc1S(=O)(=O)n1ccc2ccccc21 | < 4.43 |  | 37 |  |  |  |  |
| O=C(O)c1cccn1S(=O)(=O)c1ccccc1Cl | 3.61 |  | > 300 |  |  |  |  |

| SMILES | pEC50 [1] | Ratio [2] | CC50 [3] [µM] | pIC50 [4] | pIC50 [5] | pIC50 [6] | pIC50 [7] |
| --- | --- | --- | --- | --- | --- | --- | --- |
| CCCCNc1ccc(Cl)cc1S(=O)(=O)n1cccc1C(=O)OCC | < 3.52 |  | > 300 |  |  |  |  |
| COC(=O)c1cccn1S(=O)(=O)c1ccccc1[N+](=O)[O-] | 5.30 | >60 | > 300 |  |  |  |  |
| CCOC(=O)c1cccn1S(=O)(=O)c1ccccc1F | 4.89 | 10 | 132 |  |  |  |  |
| O=[N+]([O-])c1cc(Cl)ccc1S(=O)(=O)n1cccc1 | < 4.82 |  | 15 |  |  |  |  |
| CCOC(=O)c1cccn1S(=O)(=O)c1ccc(Cl)cc1N | < 3.62 |  | 238 |  |  |  |  |
| CCCOC(=O)c1cccn1S(=O)(=O)c1cc(Cl)ccc1[N+](=O)[O-] | < 5.00 |  | 10 |  |  |  |  |
| O=[N+]([O-])c1ccc(Cl)cc1S(=O)(=O)n1ccc2ccccc21 | < 5.70 |  | 2 |  |  |  |  |
| CCOC(=O)c1cccn1S(=O)(=O)c1ccccc1[N+](=O)[O-] | 4.82 | >20 | > 300 |  |  |  |  |
| CC(C)OC(=O)c1cccn1S(=O)(=O)c1cc(Cl)ccc1[N+](=O)[O-] | 4.52 | >10 | > 300 |  |  |  |  |
| CCN(CC)CCOC(=O)c1cccn1S(=O)(=O)c1cc(Cl)ccc1[N+](=O)[O-] | < 4.52 |  | 30 |  |  |  |  |
| O=[N+]([O-])c1cc(Cl)ccc1S(=O)(=O)n1ccc2ccccc21 | < 5.10 |  | 8 |  |  |  |  |
| CCOC(=O)c1cccn1S(=O)(=O)c1ccc(Cl)cc1[N+](=O)[O-] | 4.82 | >20 | > 300 |  |  |  |  |
| CCOC(=O)c1cccn1S(=O)(=O)c1cc(Cl)ccc1[N+](=O)[O-] | < 4.92 |  | 12 |  |  |  |  |
| Nc1ccccc1S(=O)(=O)n1cccc1 | < 3.64 |  | 228 |  |  |  |  |
| CCN(CC)CCOC(=O)c1cccn1S(=O)(=O)c1cc(Cl)ccc1N | 4.92 | 13.5 | 162 |  |  |  |  |
| CC(C)=CCN1Cc2cccc3nc(S)n(c23)C[C@H]1C |  |  |  | < 4.70 | 6.05 | 5.05 | < 4.70 |
| CCOC(=O)c1cc2ccccc2n1S(=O)(=O)c1cc(Cl)ccc1N | 5.74 | 28 | 50 |  |  |  |  |
| CCOC(=O)c1cc2ccccc2n1S(=O)(=O)c1cc(Cl)ccc1[N+](=O)[O-] | < 4.00 |  | > 100 |  |  |  |  |
| Cc1ccnc2c1NC(=O)c1cccnc1N2C1CC1 [NEVIRAPINE] |  |  | < 300 | < 4.70 |  |  |  |
| Cc1cn([C@H]2C[C@H](N=[N+]=[N-])[C@@H](CO)O2)c(=O)[nH]c1=O [ZIDOVUDINE] |  | >2000 | > 20 |  |  |  |  |
